Assay results reported in patent US11964941B2, “5-Bromo-indirubins” (City of Hope, priority 2014, dated 2024).

Tests used:
MV4-11 AML cells = assay: MTS cell viability, MV4-11 AML cells (FLT3-ITD); assay type: cell-based, human; details: Homo sapiens, 48 h, read-out: IC50 for 50% inhibition of viability
Method: (§1) MTS assays were performed for cell viability. Human cancer cells were seeded in 96-well plates (2500 cells/well for solid tumors, 5000 cells/well for blood tumors), incubated overnight at 37 C in 5% CO2, and exposed to 5IN-1NH1 or 5IN-1NH1s in a dose-dependent manner for 48 h. See FIGS. 1A-1B, 2A-2B, 3, 4A-4B, and 6A-6B. Dimethyl sulfoxide (DMSO) was used as the vehicle control. Viable cell numbers were determined by tetrazolium conversion to its formazan dye and absorbance was measured at 490 nm using an automated ELISA plate reader. Each experiment was performed in quadruplicate. IC50 values were determined using CalcuSyn software (BIOSOFT®, Cambridge GB).
(§2) Compound (1289) inhibits viabilities of MV4-11 and MOLM13 AML cells that harbor an internal tandem duplication (ITD) mutation. MTS assays were performed for cell viability. Human MV4-11 and MOLM13 AML cells (5000/well) were seeded in 96-well plates, incubated overnight at 37° C. in 5% CO2, and exposed to compound (1289) in a dose-dependent manner for 48 h. Dimethyl sulfoxide (DMSO) was used as the vehicle control. Viable cell numbers were determined by tetrazolium conversion to its formazan dye and absorbance was measured at 490 nm using an automated ELISA plate reader. Each experiment was performed in quadruplicate. IC50 values were determined using CalcuSyn software.

MOLM13 AML cells = assay: MTS cell viability, MOLM13 AML cells (FLT3-ITD); assay type: cell-based, human; details: Homo sapiens, MOLM-13, 48 h, read-out: IC50 for 50% inhibition of viability
Method: as §1, §2

FLT3 = FLT3 (Homo sapiens, UniProt P36888); assay: In vitro kinase assay, recombinant FLT3; assay type: biochemical; details: recombinant FLT3, 33P-ATP, 120 min
Method: (§3) The kinase assays were performed with recombinant class III receptor tyrosine kinase family proteins. Briefly, proteins, freshly prepared substrates and ^33P-ATP (specific activity 0.01 μCi/μl final) were mixed in reaction buffer (20 mM HEPES pH 7.5, 10 mM MgCl2, 1 mM EGTA, 0.02% Brij35, 0.02 mg/ml BSA, 0.1 mM Na3VO4, 2 mM DTT) in the presence of DMSO as control or 5IN-1NH1s. The mixtures were reacted for 120 min at room temperature. Samples were transferred onto P81 ion exchange paper and filters were extensively washed with 0.75% phosphoric acid. The radioactivities were monitored. IC50 values were determined using GraphPad Prism software.
as §3, with “Kinase” for “The kinase”, “FLT3, mutated FLT3-ITD and D835I mutant FLT3 kinases.” for “class III receptor tyrosine kinase family proteins.”, “compound (1289).” for “5IN-1NH1s.”

FLT3 (D835Y) = FLT3 (D835Y) (Homo sapiens, UniProt P36888, D835Y); assay: In vitro kinase assay, recombinant FLT3 (D835Y); assay type: biochemical; details: 33P-ATP, 120 min
Method: as §3
as §3, with “Kinase” for “The kinase”, “FLT3, mutated FLT3-ITD and D835I mutant FLT3 kinases.” for “class III receptor tyrosine kinase family proteins.”, “compound (1289).” for “5IN-1NH1s.”

FLT3 (ITD) = FLT3 (ITD) (Homo sapiens, UniProt P36888); assay: In vitro kinase assay, recombinant FLT3 (ITD); assay type: biochemical; details: 33P-ATP, 120 min
Method: as §3
as §3, with “Kinase” for “The kinase”, “FLT3, mutated FLT3-ITD and D835I mutant FLT3 kinases.” for “class III receptor tyrosine kinase family proteins.”, “compound (1289).” for “5IN-1NH1s.”

c-KIT = c-KIT (Homo sapiens, UniProt P10721); assay: In vitro kinase assay, recombinant c-KIT; assay type: biochemical; details: 33P-ATP, 120 min
Sequence of c-KIT (P10721 26-976): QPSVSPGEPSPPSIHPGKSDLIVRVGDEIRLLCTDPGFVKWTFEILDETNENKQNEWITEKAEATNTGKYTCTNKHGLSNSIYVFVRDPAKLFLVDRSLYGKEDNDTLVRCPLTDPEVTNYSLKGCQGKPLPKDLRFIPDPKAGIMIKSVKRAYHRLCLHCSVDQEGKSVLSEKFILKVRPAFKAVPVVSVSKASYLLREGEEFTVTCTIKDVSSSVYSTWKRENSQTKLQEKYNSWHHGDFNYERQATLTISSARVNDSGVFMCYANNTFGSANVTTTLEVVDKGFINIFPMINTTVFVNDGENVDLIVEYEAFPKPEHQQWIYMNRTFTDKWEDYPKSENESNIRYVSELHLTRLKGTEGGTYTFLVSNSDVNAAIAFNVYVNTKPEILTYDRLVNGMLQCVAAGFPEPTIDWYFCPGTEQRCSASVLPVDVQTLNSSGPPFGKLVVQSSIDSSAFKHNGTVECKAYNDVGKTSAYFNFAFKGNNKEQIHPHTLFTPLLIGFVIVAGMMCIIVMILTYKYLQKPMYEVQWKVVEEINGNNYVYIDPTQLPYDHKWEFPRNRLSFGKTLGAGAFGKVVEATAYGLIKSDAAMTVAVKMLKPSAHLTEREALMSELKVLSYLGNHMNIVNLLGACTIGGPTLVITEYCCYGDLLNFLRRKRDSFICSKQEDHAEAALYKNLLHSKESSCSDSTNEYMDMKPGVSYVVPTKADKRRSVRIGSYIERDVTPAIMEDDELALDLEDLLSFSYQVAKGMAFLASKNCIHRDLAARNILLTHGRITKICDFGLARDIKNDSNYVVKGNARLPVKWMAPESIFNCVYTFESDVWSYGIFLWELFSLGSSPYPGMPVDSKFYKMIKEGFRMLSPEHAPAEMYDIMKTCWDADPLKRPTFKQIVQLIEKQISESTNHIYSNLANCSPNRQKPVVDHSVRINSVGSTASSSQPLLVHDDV
Method: (§4) Compound (1289) inhibits activities of FMS, PDGFR α, PDGFR β and c-KIT in vitro. The kinase assays were performed with recombinant FMS, PDGFR α, PDGFR β and c-KIT proteins. Briefly, proteins, freshly prepared substrates and ^33P-ATP (specific activity 0.01 μCi/μl final) were mixed in reaction buffer (20 mM HEPES pH 7.5, 10 mM MgCl2, 1 mM EGTA, 0.02% Brij35, 0.02 mg/ml BSA, 0.1 mM Na3VO4, 2 mM DTT) in the presence of DMSO as control or compound (1289). The mixtures were reacted for 120 min at room temperature. Samples were transferred onto P81 ion exchange paper and filters were extensively washed with 0.75% phosphoric acid. The radioactivities were monitored.
as §3

FMS = FMS (Homo sapiens, UniProt P07333); assay: In vitro kinase assay, recombinant FMS; assay type: biochemical; details: 33P-ATP, 120 min
Sequence of FMS (P07333 20-972, species assumed): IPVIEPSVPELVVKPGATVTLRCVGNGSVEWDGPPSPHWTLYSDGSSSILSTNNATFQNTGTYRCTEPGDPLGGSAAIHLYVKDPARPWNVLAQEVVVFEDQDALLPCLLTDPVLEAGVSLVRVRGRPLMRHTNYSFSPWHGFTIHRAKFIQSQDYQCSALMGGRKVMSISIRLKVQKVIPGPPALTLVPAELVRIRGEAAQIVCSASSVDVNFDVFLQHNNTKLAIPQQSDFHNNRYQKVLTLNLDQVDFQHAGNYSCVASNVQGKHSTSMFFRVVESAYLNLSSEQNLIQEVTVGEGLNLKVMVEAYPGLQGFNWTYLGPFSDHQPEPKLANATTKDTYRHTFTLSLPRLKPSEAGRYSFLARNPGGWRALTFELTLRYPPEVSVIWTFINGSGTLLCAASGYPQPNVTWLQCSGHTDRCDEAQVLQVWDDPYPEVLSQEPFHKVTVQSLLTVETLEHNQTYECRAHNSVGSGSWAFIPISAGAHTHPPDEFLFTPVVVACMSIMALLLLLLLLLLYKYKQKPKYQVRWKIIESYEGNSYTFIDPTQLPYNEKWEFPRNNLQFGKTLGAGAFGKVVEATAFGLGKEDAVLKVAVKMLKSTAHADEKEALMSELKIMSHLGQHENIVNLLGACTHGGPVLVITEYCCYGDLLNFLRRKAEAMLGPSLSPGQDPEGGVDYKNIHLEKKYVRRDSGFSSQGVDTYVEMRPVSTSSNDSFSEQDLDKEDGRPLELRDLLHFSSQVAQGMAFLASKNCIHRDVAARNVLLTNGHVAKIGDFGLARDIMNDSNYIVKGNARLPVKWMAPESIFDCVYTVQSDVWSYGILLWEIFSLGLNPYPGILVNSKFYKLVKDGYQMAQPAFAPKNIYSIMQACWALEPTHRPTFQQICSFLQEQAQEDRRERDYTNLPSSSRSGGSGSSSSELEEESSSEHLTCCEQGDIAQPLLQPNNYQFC
Method: as §4, §3

PDGFR α = PDGFR α (Homo sapiens, UniProt P16234); assay: In vitro kinase assay, recombinant PDGFR α; assay type: biochemical; details: 33P-ATP, 120 min
Sequence of PDGFR α (P16234 24-1089, species assumed): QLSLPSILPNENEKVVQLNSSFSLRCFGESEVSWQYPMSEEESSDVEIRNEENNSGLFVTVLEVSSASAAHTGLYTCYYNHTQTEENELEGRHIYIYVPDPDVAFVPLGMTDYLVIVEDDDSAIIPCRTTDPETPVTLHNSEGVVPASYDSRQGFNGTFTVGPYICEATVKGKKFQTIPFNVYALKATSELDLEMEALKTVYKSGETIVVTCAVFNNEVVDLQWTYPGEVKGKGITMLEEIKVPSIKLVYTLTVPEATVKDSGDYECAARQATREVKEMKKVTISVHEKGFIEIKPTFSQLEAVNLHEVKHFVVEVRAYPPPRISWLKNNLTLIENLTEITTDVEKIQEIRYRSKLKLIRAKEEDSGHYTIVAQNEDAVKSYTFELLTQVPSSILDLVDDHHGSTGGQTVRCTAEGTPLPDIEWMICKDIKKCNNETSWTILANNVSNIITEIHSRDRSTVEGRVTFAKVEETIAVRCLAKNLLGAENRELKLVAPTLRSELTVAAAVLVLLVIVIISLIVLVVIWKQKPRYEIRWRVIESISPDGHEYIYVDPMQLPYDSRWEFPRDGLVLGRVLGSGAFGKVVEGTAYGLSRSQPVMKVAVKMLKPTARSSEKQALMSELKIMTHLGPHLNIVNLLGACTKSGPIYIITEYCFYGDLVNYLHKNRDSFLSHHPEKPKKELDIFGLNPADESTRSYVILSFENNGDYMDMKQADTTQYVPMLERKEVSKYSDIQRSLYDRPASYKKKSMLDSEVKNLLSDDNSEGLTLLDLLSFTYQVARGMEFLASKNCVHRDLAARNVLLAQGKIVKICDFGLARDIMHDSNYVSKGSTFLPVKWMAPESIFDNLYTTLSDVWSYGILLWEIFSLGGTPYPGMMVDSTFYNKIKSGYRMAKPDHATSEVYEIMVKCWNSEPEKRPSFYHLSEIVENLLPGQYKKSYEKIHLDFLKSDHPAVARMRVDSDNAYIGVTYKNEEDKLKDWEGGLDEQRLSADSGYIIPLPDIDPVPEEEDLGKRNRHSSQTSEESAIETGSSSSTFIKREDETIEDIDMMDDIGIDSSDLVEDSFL
Method: as §4, §3

PDGFR β = PDGFR β (Homo sapiens, UniProt P09619); assay: In vitro kinase assay, recombinant PDGFR β; assay type: biochemical; details: 33P-ATP, 120 min
Sequence of PDGFR β (P09619 33-1106, species assumed): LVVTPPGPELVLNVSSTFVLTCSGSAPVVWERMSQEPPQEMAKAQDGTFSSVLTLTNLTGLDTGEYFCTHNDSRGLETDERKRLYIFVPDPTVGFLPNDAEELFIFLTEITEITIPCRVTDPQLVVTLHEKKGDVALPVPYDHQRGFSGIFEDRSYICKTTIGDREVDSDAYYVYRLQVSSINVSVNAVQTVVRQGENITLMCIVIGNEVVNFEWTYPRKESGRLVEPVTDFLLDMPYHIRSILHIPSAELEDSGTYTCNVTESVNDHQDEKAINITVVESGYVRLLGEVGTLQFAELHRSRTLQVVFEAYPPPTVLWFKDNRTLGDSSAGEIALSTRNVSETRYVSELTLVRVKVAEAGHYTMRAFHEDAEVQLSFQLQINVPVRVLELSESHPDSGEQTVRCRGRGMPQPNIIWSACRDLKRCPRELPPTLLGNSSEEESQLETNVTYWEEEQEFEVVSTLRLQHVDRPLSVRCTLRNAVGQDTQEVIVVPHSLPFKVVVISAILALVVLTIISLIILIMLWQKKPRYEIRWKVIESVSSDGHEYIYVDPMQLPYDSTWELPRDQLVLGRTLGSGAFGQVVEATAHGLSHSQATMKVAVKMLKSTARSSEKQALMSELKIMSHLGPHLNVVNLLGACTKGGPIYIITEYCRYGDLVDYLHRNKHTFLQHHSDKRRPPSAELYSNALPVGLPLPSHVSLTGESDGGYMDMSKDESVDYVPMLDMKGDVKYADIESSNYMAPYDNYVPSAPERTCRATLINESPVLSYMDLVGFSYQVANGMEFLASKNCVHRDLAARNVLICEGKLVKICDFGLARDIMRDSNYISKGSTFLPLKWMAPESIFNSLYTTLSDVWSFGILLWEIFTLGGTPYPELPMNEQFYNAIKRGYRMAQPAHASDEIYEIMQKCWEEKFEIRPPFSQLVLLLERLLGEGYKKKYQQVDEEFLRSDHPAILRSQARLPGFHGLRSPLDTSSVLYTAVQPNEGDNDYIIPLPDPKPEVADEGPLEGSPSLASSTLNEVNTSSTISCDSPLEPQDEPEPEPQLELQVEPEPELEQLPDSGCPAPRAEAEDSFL
Method: as §4, §3

STAT5 = assay: Western blot, phosphorylation of STAT5 in AML cells; assay type: cell-based, human; details: FLT-ITD mutated AML cells (MV4-11, MOLM13), 4h
Method: (§5) Western blot analyses were performed with specific antibodies. Briefly, human MV4-11 and MOLM13 AML cells were treated with compound (1289) in a dose-dependent manner for 4h. Whole-cell lysates (40 ug) were resolved by SDS-PAGE. Primary phospho-specific antibodies to p-Stat5 and […] were diluted in TBS (pH 7.5) with 5% (w/v) BSA and 0.1% (v/v) Tween-20 over night at 4° C. Primary specific antibodies to Stat5 and […] were diluted in PBS (pH 7.5) with 5% (w/v) nonfat milk and 0.1% (v/v) Tween-20 overnight at 4° C. Horseradish peroxidase-conjugated secondary antibodies were incubated in PBS (pH 7.5) with 5% (w/v) nonfat milk and 0.1% (v/v) Tween-20 for 1 h at room temperature. Positive immuno-reactive proteins were detected using the ECL system.

Erk1/2 = assay: Western blot, phosphorylation of Erk1/2 in AML cells; assay type: cell-based, human; details: FLT-ITD mutated AML cells (MV4-11, MOLM13), 4h
Method: as §5

MV4-11 AML SQ xenografts = MV4-11 AML SQ xenografts in vivo; parameters: species or system mouse; details: NSG mice, 25 mg/kg orally twice daily for 18 days
Method: Human MV4-11 AML cells (5×10^6) were resuspended in serum-free RPMI1640 medium and subcutaneously injected into the flank of 5-6 weeks old NOD/SCID/IL-2rg(ko) (NSG) female mouse. When palpable tumor sizes reached at approximately 100 mm^3, mice were randomly divided into two groups (vehicle=7, treatment=7). Then, compound (1289) was orally administered at 25 mg/kg with vehicle (10% DMSO+30% SOLUTOL®+60% Saline), twice daily for 18 days. Tumor volumes were calculated by the formula 1/2a×b^2, where a is the long diameter, and b is the short diameter. Tumor volumes correlate with tumor weights. The statistical significance of group differences was analyzed using a Student's t-test with the two-tailed distribution. P values less than 0.05 were considered statistically significant.

SMILES: O=C1Nc2ccc(Br)cc2C1=C1Nc2ccccc2C1=NOCCN1CCNCC1 [Compound (1289)]
- IC50 (MV4-11 AML cells): 1.8 nM
- IC50 (MOLM13 AML cells): 2.3 nM
- IC50 (FLT3): 0.68 nM
- IC50 (FLT3 (D835Y)): < 0.5 nM
- IC50 (FLT3 (ITD)): 0.56 nM
- IC50 (c-KIT): 47.7 nM
- IC50 (FMS): 7.6 nM
- IC50 (PDGFR α): 13.6 nM
- IC50 (PDGFR β): 1.2 nM
- phosphorylation of STAT5 (STAT5): blocked phosphorylation
- phosphorylation of Erk1/2 (Erk1/2): blocked phosphorylation
- efficacy in vivo on MV4-11 AML SQ xenografts (MV4-11 AML SQ xenografts): shows efficacy in vivo
